# What was measured:
# ryegrass, Italian [1] = test: Test C preemergence; type: in vivo, Lolium multiflorum
# Outline: (§1)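 Greenhouse herbicide screen, 10-day duration. Test chemicals in solvent/surfactant blend were sprayed onto soil at sowing (pre) or onto 2–10 cm seedlings at one to two leaves (post); injury scored visually against controls, 0 no effect to 100 complete control.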
# rice = test: Test D flooded paddy test; type: in vivo, Oryza sativa; conditions: 250 g ai/ha, applied to paddy water, visual rating after 13 to 14 days, scale 0 to 100 (0 no effect, 100 complete control)
# Outline: (§2)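 2-leaf plants; flood 3 cm above soil; compound dosed into paddy water; greenhouse 13–14 d; visual rating vs controls, 0–100 (100 = complete control); dash = not tested.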
# ryegrass, Italian [2] = test: Test C postemergence; type: in vivo, Lolium multiflorum; conditions: 10 days, 0 to 100 scale (0 no effect, 100 complete control)
# Outline: as §1
# blackgrass [3] = test: Test C postemergence; type: in vivo, Alopecurus myosuroides; conditions: 10 days, 0 to 100 scale (0 no effect, 100 complete control)
# Outline: as §1
# ducksalad = test: Test D flooded paddy test; type: in vivo, Heteranthera limosa; conditions: 250 g ai/ha, applied to paddy water, visual rating after 13 to 14 days, scale 0 to 100 (0 no effect, 100 complete control)
# Outline: as §2
# barnyardgrass [4] = test: Test D flooded paddy test; type: in vivo, Echinochloa crus-galli; conditions: 250 g ai/ha, applied to paddy water, visual rating after 13 to 14 days, scale 0 to 100 (0 no effect, 100 complete control)
# Outline: as §2
# ragweed [5] = test: Test C preemergence; type: in vivo, Ambrosia artemisiifolia
# Outline: as §1
# ragweed [6] = test: Test C postemergence; type: in vivo, Ambrosia artemisiifolia; conditions: 10 days, 0 to 100 scale (0 no effect, 100 complete control)
# Outline: as §1
# pigweed, palmer [7] = test: Test C preemergence; type: in vivo, Amaranthus palmeri
# Outline: as §1
# barnyardgrass [8] = test: Test C preemergence; type: in vivo, Echinochloa crusgalli
# Outline: as §1
# wheat [9] = test: Test C preemergence; type: in vivo, Triticum aestivum
# Outline: as §1
# green foxtail [10] = test: Test C postemergence; type: in vivo, Setaria viridis; conditions: 10 days, 0 to 100 scale (0 no effect, 100 complete control)
# Outline: as §1
# wheat [11] = test: Test C postemergence; type: in vivo, Triticum aestivum; conditions: 10 days, 0 to 100 scale (0 no effect, 100 complete control)
# Outline: as §1
# sedge, umbrella = test: Test D flooded paddy test; type: in vivo, Cyperus difformis; conditions: 250 g ai/ha, applied to paddy water, visual rating after 13 to 14 days, scale 0 to 100 (0 no effect, 100 complete control)
# Outline: as §2
# corn [12] = test: Test C postemergence; type: in vivo, Zea mays; conditions: 10 days, 0 to 100 scale (0 no effect, 100 complete control)
# Outline: as §1
# oat, wild [13] = test: Test C preemergence; type: in vivo, Avena fatua
# Outline: as §1
# pigweed, palmer [14] = test: Test C postemergence; type: in vivo, Amaranthus palmeri; conditions: 10 days, 0 to 100 scale (0 no effect, 100 complete control)
# Outline: as §1
# kochia [15] = test: Test C postemergence; type: in vivo, Bassia scoparia; conditions: 10 days, 0 to 100 scale (0 no effect, 100 complete control)
# Outline: as §1
# soybean [16] = test: Test C preemergence; type: in vivo, Glycine max
# Outline: as §1
# kochia [17] = test: Test C preemergence; type: in vivo, Bassia scoparia
# Outline: as §1
# green foxtail [18] = test: Test C preemergence; type: in vivo, Setaria viridis
# Outline: as §1
# barnyardgrass [19] = test: Test C postemergence; type: in vivo, Echinochloa crusgalli; conditions: 10 days, 0 to 100 scale (0 no effect, 100 complete control)
# Outline: as §1
# corn [20] = test: Test C preemergence; type: in vivo, Zea mays
# Outline: as §1
# oat, wild [21] = test: Test C postemergence; type: in vivo, Avena fatua; conditions: 10 days, 0 to 100 scale (0 no effect, 100 complete control)
# Outline: as §1
# horseweed = test: Test C postemergence; type: in vivo, Erigeron canadensis; conditions: 10 days, 0 to 100 scale (0 no effect, 100 complete control)
# Outline: as §1
# blackgrass [22] = test: Test C preemergence; type: in vivo, Alopecurus myosuroides
# Outline: as §1
# soybean [23] = test: Test C postemergence; type: in vivo, Glycine max; conditions: 10 days, 0 to 100 scale (0 no effect, 100 complete control)
# Outline: as §1
# galium = test: Test C postemergence; type: in vivo, Galium aparine; conditions: 10 days, 0 to 100 scale (0 no effect, 100 complete control)
# Outline: as §1
# [24] = 500 g ai/ha, preemergence, 0 to 100 scale (0 no effect, 100 complete control)
# [25] = Preemergence, 125 g ai/ha, 0 to 100 scale, 0 no effect, 100 complete control
compound,measurement,setting,value
COCc1ncn(-c2ccc(C)c(C(=O)N3C[C@H](C)Oc4c(Cl)cccc43)c2)n1 [Compound 357],"Ryegrass, Italian plant response rating","ryegrass, Italian [1]; [24]",100
same,"Plant response rating, Ryegrass, Italian","ryegrass, Italian [1]; [25]",100
same,"Plant response rating, Rice (Flood)",rice,0
same,"Plant response rating, Ryegrass, Italian","ryegrass, Italian [2]; 500 g ai/ha, postemergence",100
same,"Plant response rating, Ryegrass, Italian","ryegrass, Italian [2]; Postemergence, 125 g ai/ha",50
same,"Plant response rating, Blackgrass","blackgrass [3]; 500 g ai/ha, postemergence",100
same,"Plant response rating, Blackgrass","blackgrass [3]; Postemergence, 125 g ai/ha",90
same,"Plant response rating, Ducksalad (Flood)",ducksalad,45
same,"Plant response rating, Barnyardgrass (Flood)",barnyardgrass [4],10
same,Ragweed plant response rating,ragweed [5]; [24],60
same,"Plant response rating, Ragweed",ragweed [5]; [25],10
same,"Plant response rating, Ragweed","ragweed [6]; 500 g ai/ha, postemergence",60
same,"Plant response rating, Ragweed","ragweed [6]; Postemergence, 125 g ai/ha",20
same,"Pigweed, Palmer plant response rating","pigweed, palmer [7]; [24]",100
same,"Plant response rating, Pigweed, Palmer","pigweed, palmer [7]; [25]",90
same,Barnyardgrass plant response rating,barnyardgrass [8]; [24],100
same,"Plant response rating, Barnyardgrass",barnyardgrass [8]; [25],80
same,Wheat plant response rating,wheat [9]; [24],70
same,"Plant response rating, Wheat",wheat [9]; [25],0
same,"Plant response rating, Foxtail, Green","green foxtail [10]; 500 g ai/ha, postemergence",90
same,"Plant response rating, Foxtail, Green","green foxtail [10]; Postemergence, 125 g ai/ha",30
same,"Plant response rating, Wheat","wheat [11]; 500 g ai/ha, postemergence",80
same,"Plant response rating, Wheat","wheat [11]; Postemergence, 125 g ai/ha",20
same,"Plant response rating, Sedge, Umbrella (Flood)","sedge, umbrella",90
same,"Plant response rating, Corn","corn [12]; 500 g ai/ha, postemergence",80
same,"Plant response rating, Corn","corn [12]; Postemergence, 125 g ai/ha",40
same,"Oat, Wild plant response rating","oat, wild [13]; [24]",90
same,"Plant response rating, Oat, Wild","oat, wild [13]; [25]",60
same,"Plant response rating, Pigweed, Palmer","pigweed, palmer [14]; 500 g ai/ha, postemergence",100
same,"Plant response rating, Pigweed, Palmer","pigweed, palmer [14]; Postemergence, 125 g ai/ha",50
same,"Plant response rating, Kochia","kochia [15]; 500 g ai/ha, postemergence",70
same,"Plant response rating, Kochia","kochia [15]; Postemergence, 125 g ai/ha",50
same,Soybean plant response rating,soybean [16]; [24],100
same,"Plant response rating, Soybean",soybean [16]; [25],100
same,Kochia plant response rating,kochia [17]; [24],90
same,"Plant response rating, Kochia",kochia [17]; [25],50
same,"Foxtail, Green plant response rating",green foxtail [18]; [24],100
same,"Plant response rating, Foxtail, Green",green foxtail [18]; [25],100
same,"Plant response rating, Barnyardgrass","barnyardgrass [19]; 500 g ai/ha, postemergence",100
same,"Plant response rating, Barnyardgrass","barnyardgrass [19]; Postemergence, 125 g ai/ha",50
same,Corn plant response rating,corn [20]; [24],20
same,"Plant response rating, Corn",corn [20]; [25],10
same,"Plant response rating, Oat, Wild","oat, wild [21]; 500 g ai/ha, postemergence",90
same,"Plant response rating, Oat, Wild","oat, wild [21]; Postemergence, 125 g ai/ha",30
same,"Plant response rating, Horseweed","horseweed; 500 g ai/ha, postemergence",80
same,"Plant response rating, Horseweed","horseweed; Postemergence, 125 g ai/ha",60
same,Blackgrass plant response rating,blackgrass [22]; [24],100
same,"Plant response rating, Blackgrass",blackgrass [22]; [25],80
same,"Plant response rating, Soybean","soybean [23]; 500 g ai/ha, postemergence",100
same,"Plant response rating, Soybean","soybean [23]; Postemergence, 125 g ai/ha",100
same,"Plant response rating, Galium","galium; 500 g ai/ha, postemergence",100
same,"Plant response rating, Galium","galium; Postemergence, 125 g ai/ha",100

# Reference: patent US20260262643A1, “HERBICIDAL BENZOXAZINES” (FMC CORPORATION, priority 2022, published 2026)
